This note sets out measurements from patent publication US8034811B2, “Hydroxamic acid esters and pharmaceutical use thereof” (Leo Pharma A/S, priority 2003, dated 2011).

SMILES strings stand for the structures.

In general, IC50 refers to the concentration that gives 50% inhibition. A high value points to weaker potency.

In this test the target is T1, human intracellular domain of KDR (VEGF Receptor-2) (Homo sapiens, UniProt P35968).
T1 construct: A fusion protein containing the intracellular domain (amino acids 793 to 1357) of the KDR and N-terminally tagged to GST; made in house; host or cells: Sf9 insect cells (baculovirus, pDEST20) for GST-KDR-cyt; E. coli BL21 (pGEX-4T-1) for GST-PLCγ
T1 sequence (P35968 794-1356 limits assumed): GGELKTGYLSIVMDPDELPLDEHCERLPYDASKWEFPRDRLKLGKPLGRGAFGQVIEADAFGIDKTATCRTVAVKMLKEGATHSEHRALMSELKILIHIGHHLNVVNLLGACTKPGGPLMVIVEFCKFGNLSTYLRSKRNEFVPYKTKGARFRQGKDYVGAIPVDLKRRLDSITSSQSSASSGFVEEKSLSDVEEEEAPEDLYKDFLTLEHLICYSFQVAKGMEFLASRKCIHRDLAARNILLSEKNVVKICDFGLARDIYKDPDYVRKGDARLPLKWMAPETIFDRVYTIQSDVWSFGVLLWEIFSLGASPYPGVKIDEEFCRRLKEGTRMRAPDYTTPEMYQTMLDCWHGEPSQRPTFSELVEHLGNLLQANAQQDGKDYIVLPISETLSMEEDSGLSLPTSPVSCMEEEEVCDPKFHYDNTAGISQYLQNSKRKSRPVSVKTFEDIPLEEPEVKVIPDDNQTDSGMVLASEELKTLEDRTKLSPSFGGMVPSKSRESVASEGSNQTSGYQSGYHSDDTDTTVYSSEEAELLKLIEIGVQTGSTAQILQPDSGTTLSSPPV
Kind of test: In vitro KDR kinase assay. The class given is biochemical. Particulars: IC50 as molar concentration; GST-KDR-cyt, substrate phospholipase Cγ, ATP 100 μM, 30 min room temperature, time-resolved fluorometry. The procedure: The intracellular domain of the KDR receptor was used in the in vitro KDR assay. This domain contains the tyrosine kinase domain of KDR, and when expressed in Sf9 cells, this domain is constitutively active i.e. the kinase domain is phosphorylated on tyrosine residues.
The compounds to be tested were dissolved in DMSO at 10 mM, stored at −20° C. and protected from light. The maximum concentration of DMSO in the in vitro assay was 0.1%. Control samples received the same concentration of solvent as the samples treated with the test compounds.
For the kinase assays, black 96 wells MaxiSorp microtiter plates were coated by an overnight incubation with 100 μl/well of a 2.5 μg/ml solution of phospholipase Cγ in TBS buffer (40 mM Tris-HCl, pH 7.4, 20 mM Mg(C2H3O2)2, 0.02% NaN3) at 4° C. The plates were washed 3 times with TBS buffer containing 0.1% Tween-20, and the residual binding sites were masked by incubation with 1% BSA in TBS buffer containing 0.1% Tween-20 for 1 h. The plates were washed again and the test compounds were added at final concentrations up to 10 μM, together with ATP at the final concentration of 100 μM in 50 μl TBS buffer/well. Then, 50 μl of the human intracellular domain of KDR (VEGF Receptor-2) finally diluted 3000-3500 fold were added and were incubated for 30 min at room temperature. The plates were washed and 100 μl of the Europium labelled PY-20 anti-phosphotyrosine antibody (Wallac, FIN) were incubated in each well at the concentration of approximately 114 ng/ml for 2 h. Then, the plates were washed and 100 μl of enhancer solution (Wallac, FIN) were incubated in each well for 5 min in the dark. The plates were read in a Victor 1420 multilabel counter, using a Europium protocol for time-resolved fluorometry (Wallac, FIN): excitation 340 nm, emission 615 nm, sample pulse cycle 400 μs. Fluorescence was measured for 400 μs between flashes after a delay time of 400 μs. The background measured in the absence of enzyme was subtracted from all samples. The molar concentrations that inhibited 50% of the maximal enzymatic activity (IC50) were calculated from the dose-response curve, by fitting a straight line between the two concentrations immediately above and below the 50% inhibition point (i.e. by solving the equation y=a+bx).
On to `COc1ccc(CONC(=O)c2ccccc2NCc2ccncc2)cc1C(F)(F)F` [Compound 63, N-(4-Methoxy-3-trifluoromethyl-benzyloxy)-2-[(pyridin-4-ylmethyl)-amino]-benzamide], for which the IC50 is 63.1 nM. The value for `COc1ccccc1CONC(=O)c1ccccc1NCc1ccncc1` [Compound 64, N-(2-Methoxy-benzyloxy)-2-[(pyridin-4-ylmethyl)-amino]-benzamide] was 50.1 nM. The value for `O=C(NOCc1ccccc1OC(F)(F)F)c1ccccc1NCc1ccncc1` [Compound 66, 2-[(Pyridin-4-ylmethyl)-amino]-N-(2-trifluoromethoxy-benzyloxy)-benzamide] was 63.1 nM. The value for `O=C(NOCc1cccc(OC(F)(F)F)c1)c1ccccc1NCc1ccncc1` [Compound 67, 2-[(Pyridin-4-ylmethyl)-amino]-N-(3-trifluoromethoxy-benzyloxy)-benzamide] was 50.1 nM; that for `O=C(NOCc1ccc(OC(F)(F)F)cc1)c1ccccc1NCc1ccncc1` [Compound 68, 2-[(Pyridin-4-ylmethyl)-amino]-N-(4-trifluoromethoxy-benzyloxy)-benzamide] was 79.4 nM; that for `O=C(NOCc1ccccc1OC(F)F)c1ccccc1NCc1ccncc1` [Compound 69, N-(2-Difluoromethoxy-benzyloxy)-2-[(pyridin-4-ylmethyl)-amino]-benzamide] was 6.31 nM.

In the case of `O=C(NOCc1ccccc1SC(F)(F)F)c1ccccc1NCc1ccncc1` [Compound 70, 2-[(Pyridin-4-ylmethyl)-amino]-N-(2-trifluoromethylsulfanyl-benzyloxy)-benzamide], the IC50 was 31.6 nM.

In turn, `O=C(NOCc1cc2c(cc1Cl)OCO2)c1ccccc1NCc1ccncc1` [Compound 71, N-(6-Chloro-benzo[1,3]dioxol-5-ylmethoxy)-2-[(pyridin-4-ylmethyl)amino]-benzamide] had an IC50 of 25.1 nM.

Consider `O=C(NOCc1ccc2c(c1)OCO2)c1ccccc1NCc1ccncc1` [Compound 72, N-(Benzo[1,3]-dioxol-5-ylmethoxy)-2-[(pyridin-4-ylmethyl)-amino]-benzamide], for which the IC50 is 39.8 nM. The value for `O=C(NOCc1ccc2c(c1)CCC2)c1ccccc1NCc1ccncc1` [Compound 73, N-(Indan-5-ylmethoxy)-2-[(pyridin-4-ylmethyl)-amino]-benzamide] was 15.8 nM; that for `N#Cc1cccc(CONC(=O)c2ccccc2NCc2ccncc2)c1` [Compound 74, N-(3-Cyano-benzyloxy)-2-[(pyridin-4-ylmethyl)-amino]-benzamide] was 63.1 nM; that for `N#Cc1ccccc1CONC(=O)c1ccccc1NCc1ccncc1` [Compound 75, N-(2-Cyano-benzyloxy)-2-[(pyridin-4-ylmethyl)-amino]-benzamide] was 63.1 nM. For `N#Cc1ccc(CONC(=O)c2ccccc2NCc2ccncc2)c(F)c1` [Compound 76, N-(4-Cyano-2-fluoro-benzyloxy)-2-[(pyridin-4-ylmethyl)-amino]-benzamide], the midpoint of inhibition, the IC50, lay at 25.1 nM.

`N#Cc1ccc(CONC(=O)c2ccccc2NCc2ccncc2)cc1Br` [Compound 77, N-(3-Bromo-4-cyano-benzyloxy)-2-[(pyridin-4-ylmethyl)-amino]-benzamide] showed an IC50 of 39.8 nM. The value for `N#Cc1ccc(CONC(=O)c2ccccc2NCc2ccncc2)c(Cl)c1` [Compound 78, N-(2-Chloro-4-cyano-benzyloxy)-2-[(pyridin-4-ylmethyl)-amino]-benzamide] was 15.8 nM; that for `COc1cc(C#N)ccc1CONC(=O)c1ccccc1NCc1ccncc1` [Compound 79, N-(4-Cyano-2-methoxy-benzyloxy)-2-[(pyridin-4-ylmethyl)-amino]-benzamide] was 39.8 nM; that for `N#Cc1ccc(CONC(=O)c2ccccc2NCc2ccncc2)c(I)c1` [Compound 80, N-(4-Cyano-2-iodo-benzyloxy)-2-[(pyridin-4-ylmethyl)-amino]-benzamide] was 39.8 nM. Regarding `N#Cc1ccc(Br)c(CONC(=O)c2ccccc2NCc2ccncc2)c1` [Compound 81, N-(2-Bromo-5-cyano-benzyloxy)-2-[(pyridin-4-ylmethyl)-amino]-benzamide], the IC50 is 50.1 nM. With `N#Cc1ccc(CONC(=O)c2ccccc2NCc2ccncc2)c2ccccc12` [Compound 82, N-(4-Cyano-naphthalen-1-ylmethoxy)-2-[(pyridin-4-ylmethyl)-amino]-benzamide] the figure was 15.8 nM. `Nc1ccccc1CONC(=O)c1ccccc1NCc1ccncc1` [Compound 85, N-(2-Amino-benzyloxy)-2-[(pyridin-4-ylmethyl)-amino]-benzamide] had an IC50 of 50.1 nM. In turn, `COC(=O)c1cccc(CONC(=O)c2ccccc2NCc2ccncc2)c1` [Compound 87, 3-{2-[(Pyridin-4-ylmethyl)-amino]-benzoylaminooxymethyl}-benzoic acid methyl ester] had an IC50 of 100 nM. With `CN(C)CCNC(=O)c1cccc(CONC(=O)c2ccccc2NCc2ccncc2)c1` [Compound 96, N-[3-(2-dimethylaminoethylcarbamoyl)-benzyloxy]-2-[(pyridin-4-ylmethyl)-amino]-benzamide] the figure was 79.4 nM. The value for `O=C(NOCc1ccccc1-c1cccs1)c1ccccc1NCc1ccncc1` [Compound 98, 2-[(Pyridin-4-ylmethyl)-amino]-N-(2-thiophen-2-yl-benzyloxy)-benzamide] was 39.8 nM; that for `O=C(NOCc1cccc2ccccc12)c1ccccc1NCc1ccncc1` [Compound 100, N-(Naphthalen-1-ylmethoxy)-2-[(pyridin-4-ylmethyl)-amino]-benzamide] was 63.1 nM. Turning to `O=C(NOCc1cc(Cl)nc(Cl)c1)c1ccccc1NCc1ccncc1` [Compound 104, N-(2,6-Dichloro-pyridin-4-ylmethoxy)-2-[(pyridin-4-ylmethyl)-amino]-benzamide], the IC50 is 63.1 nM. With `O=C(NOCc1cnc(Cl)s1)c1ccccc1NCc1ccncc1` [Compound 106, N-(2-Chloro-thiazol-5-ylmethoxy)-2-[(pyridin-4-ylmethyl)-amino]-benzamide] the figure was 50.1 nM.

For the compound `O=C(NOCc1csc(-c2ccccc2)n1)c1ccccc1NCc1ccncc1` [Compound 107, N-(2-Phenyl-thiazol-4-ylmethoxy)-2-[(pyridin-4-ylmethyl)-amino]-benzamide], the IC50 was 100 nM. `CCCc1cc(CONC(=O)c2ccccc2NCc2ccncc2)on1` [Compound 110, N-(3-Propyl-isoxazol-5-ylmethoxy)-2-[(pyridin-4-ylmethyl)-amino]-benzamide] had an IC50 of 79.4 nM. In the case of `O=C(NOCc1ccc(Cl)s1)c1ccccc1NCc1ccncc1` [Compound 111, N-(5-Chloro-thiophen-2-ylmethoxy)-2-[(pyridin-4-ylmethyl)-amino]-benzamide], the IC50 was 79.4 nM. As for `O=C(NOCC1CCCC1)c1ccccc1NCc1ccncc1` [Compound 113, N-Cyclopentylmethoxy-2-[(pyridin-4-ylmethyl)-amino]-benzamide], half-maximal inhibition (IC50) was put at 2.51 nM. Take `O=C(NOCC1CC1)c1ccccc1NCc1ccncc1` [Compound 114, N-Cyclopropylmethoxy-2-[(pyridin-4-ylmethyl)-amino]-benzamide]: the IC50 is 100 nM. `CC(C)(C)CONC(=O)c1ccccc1NCc1ccncc1` [Compound 116, N-(2,2-Dimethyl-propoxy)-2-[(pyridin-4-ylmethyl)-amino]-benzamide] showed an IC50 of 39.8 nM.
